Results from a melting point compilation (Tetko et al.; mined from patent text by program, amines drawn as free bases though some values may be those of a salt).

For O=C(OC1c2ccccc2C(=O)N1c1ccc2ccc(Cl)nc2n1)N1CCN(C(=O)C2CCCCC2)CC1 (stereo not drawn), the melting point was 240 °C.
Compound O=C(OCC1c2ccccc2-c2ccc(S(=O)(=O)O)cc21)ON1C(=O)CCC1=O (stereo not drawn) has a melting point of 140 to 146 °C.
Work on CC(C)CN1CCCC1CNC(=O)c1cc(S(N)(=O)=O)cc2c1OC(C)C2 (stereo not drawn) yielded a melting point of 182 to 184 °C.
With CCC(=O)SCC(C)C(=O)N1C(C(=O)O)CC2CCCCC21 (stereo not drawn) the melting point was 170 to 172 °C.
Compound CCCCOc1ccc(F)cc1OCCN1C(=O)c2ccccc2C1=O has a melting point of 107 to 108 °C.
Cc1ccc2c(c1)N(CC(=O)c1ccccc1C)C(=O)C(NC(=O)Nc1cccc(C(=O)O)c1)CN2C(=O)OCc1ccccc1 (stereo not drawn) gave a melting point of 144 to 147 °C.
In the case of COc1ccc(CNc2nc(Cl)ncc2C(=O)c2ccccn2)cc1Cl, the melting point is reported as 117 to 119 °C.
CCOC(=O)Cc1ccc(-c2nc(COc3ccc(CCl)cc3OC)c(C)o2)cc1 gave a melting point of 121 to 122 °C.
Compound Cc1c(C)n(CC=CCl)c2c(OCc3ccc(F)cc3)nncc12 has a melting point of 110 to 115 °C.
For C=CCNC(=S)NNCC1CC2c3cccc4[nH]cc(c34)CC2N(C)C1 (stereo not drawn), the melting point was 207 to 208 °C.
For C=C(Cc1ccccc1)C(=O)O, the melting point was 61 to 62 °C.
Compound COC(=O)c1cc(C(=O)NN)c2cc(Cc3ccc(F)cc3)cnc2c1O has a melting point of 156 to 157 °C.
Work on Cc1ccc(S(=O)(=O)Cc2c(-c3ccc(Cl)cc3Cl)nn(C)c2O)cc1 yielded a melting point of 209 °C.
COc1cc(N2CCCN(C[C@H](O)CO)CC2)ccc1Nc1ncc2ccc(-c3ccccc3OC)n2n1 showed a melting point of 93 to 99 °C.
Compound CS(=O)(=O)c1ccc(-c2sc(Cc3ccccc3)nc2-c2ccc(F)cc2)cc1 has a melting point of 117 to 118 °C.
Compound COC1COC(c2ccccc2)OC1 (stereo not drawn) has a melting point of 51 °C.
CCc1nc(Cl)c2c(-c3ccc([N+](=O)[O-])o3)nn(C)c2n1 showed a melting point of 165 °C.
COc1ccc(CC(C)NCC(O)c2cccc(Cl)c2)cc1F (stereo not drawn) showed a melting point of 93 to 95 °C.
In the case of CCCCCCOc1c(CBr)ccc2c(OCCCCCC)c(CBr)ccc12, the melting point is reported as 58 to 60 °C.
COc1ccc(OC)c2c(Nc3cccc(N(C)C)c3)c(C#N)cnc12 showed a melting point of 103 to 105 °C.
CC(C)(COc1ccc(Cl)cc1)C(=O)C(Oc1ccc(Cl)cc1)n1cncn1 (stereo not drawn) showed a melting point of 206 to 208 °C.
For CC1(c2ccccc2)SC(=S)N(Nc2ccccc2)C1=NO (stereo not drawn), the melting point was 83 to 84 °C.
N#Cc1ccc2[nH]c3c(ccc4c(C=O)c[nH]c43)c2c1 gave a melting point greater than 250 °C.
Work on CCOC(=O)C1=Cc2c3c(c(C(=O)OCC)cc2=N1)=Nc1cnccc1-3 yielded a melting point of 198 to 201 °C.
In the case of Clc1cc(Nc2ccccc2)c(Cl)nn1, the melting point is reported as 137 to 139 °C.
With CC#CCOc1cc(Oc2ccc(F)c(C(F)(F)F)c2)ncn1 the melting point was 90.1 °C.
Work on Nc1nnc(N2CCN(CCOc3ccccc3)CC2)[nH]1 yielded a melting point of 131 to 133 °C.
Cn1ccc2ccc(N3Cc4c(cccc4[N+](=O)[O-])C3=O)cc21 showed a melting point of 225 to 262 °C.
Compound Nc1nc(-c2ccc([N+](=O)[O-])o2)ns1 has a melting point of 168 to 170 °C.
Cc1c(N)cc(C(C)(C)C)cc1N showed a melting point of 97.3 °C.
Work on COc1ccc(-c2cnc3cc4cnn(CCO)c4cc3n2)cc1F yielded a melting point of 192 to 195 °C.
With Cc1c(C(=O)O)nc2ccc3c(c2c1-c1ccc2c(c1)OCO2)OCO3 the melting point was 219 to 222 °C.
O=C(CCc1ccccc1)c1ccc2n1Cc1ccccc1N(C(=O)COc1ccc(Cl)cc1)C2 showed a melting point of 126 to 128 °C.
For Cc1c(N)ccc2c1C(=O)NS2(=O)=O, the melting point was 272 to 273 °C.
Work on Cc1csc(CNC(=O)c2sc(N3CCN(CC4CC4(F)F)C3=O)nc2C)n1 (stereo not drawn) yielded a melting point of 157 to 159 °C.
In the case of N#Cc1cnc2c(c1)N(Cc1cc(Cl)ccc1Cl)CCN2, the melting point is reported as 221 to 222 °C.
O=c1[nH]c2ncc(-c3ccc(O)cc3)nc2n1CCc1ccccc1 gave a melting point of 283 to 284 °C.
For CC(C)(C)OC(=O)N[C@@H]1C(=O)N[C@H]1C1CCCCC1 (relative stereo), the melting point was 130 to 132 °C.
For CCCCc1noc(-c2cccc(NC(=O)N(C)C)c2)n1, the melting point was 108 to 110 °C.
In the case of Cc1[nH]c(C(=O)NCc2ccc(Cl)c(Cl)c2)c(C)c1-c1nc2ccc(C(=O)c3ccccc3)cc2[nH]1, the melting point is reported as 141 to 143 °C.
CC(C)(C=O)NC(=O)OC(C)(C)C showed a melting point of 84 to 85 °C.
CC(=O)N1CCN(Cc2nc(-c3ccc4c(c3)Nc3ccccc3S4)cs2)CC1 gave a melting point of 218 to 220 °C.
Work on CCCc1c(OCCCCCCC2(C)CC(=O)c3ccc(OCC(=O)O)c(CCC)c3O2)ccc(C(C)=O)c1O (stereo not drawn) yielded a melting point of 120 to 125 °C.
In the case of CC(C)(OCc1nn(C2CCCc3ccccc32)c2ccccc12)C(=O)O (stereo not drawn), the melting point is reported as 132 to 134 °C.
Cc1cccc2c1O[C@@H](CN1CCC(CNC(=O)c3cccnc3N)CC1)CO2 showed a melting point of 56 to 58 °C.
Work on C[C@@H](N[C@@H](Cc1c[nH]c2ccccc12)C(=O)O)[C@H](NC(=O)[C@@H](N)CC(N)=O)C(=O)O yielded a melting point of 65 to 70 °C.
Compound Cc1cc2c(c3ccc(=O)[nH]c13)OC(CSCCN(C)C)C2 (stereo not drawn) has a melting point of 163 to 165 °C.
Compound OCCOCC(O)c1ccc(OCc2ccccc2)cc1 (stereo not drawn) has a melting point of 116 to 117 °C.
For OCc1cc(-c2ccc(Cl)c(Cl)c2)n(Cc2cccc(Cl)c2)n1, the melting point was 95 °C.
Work on COC(=O)c1c(F)c(F)c(NCc2ccccc2)c(F)c1F yielded a melting point of 96 to 97 °C.
Cc1cccc(C)c1N(C(C)C(=O)NN)S(C)(=O)=O (stereo not drawn) showed a melting point of 115 to 118 °C.
Work on CCC(C)(Oc1ccc(F)cc1F)C(=O)Nc1nc(CC(=O)O)cs1 (stereo not drawn) yielded a melting point of 148 to 149 °C.
For O=C(O)COc1c(-c2cc(Cl)cc(Cl)c2)cc(C(=O)NCCCCCCc2ccccc2)cc1-c1cc(Cl)cc(Cl)c1, the melting point was 151 to 159 °C.
With NS(=O)(=O)c1ccc(NN=Cc2ccc(Br)cc2)cc1 the melting point was 190 to 192 °C.
Compound COc1ccc(-c2nc(Sc3ccc(C)cc3)n(C3CCCCO3)c2-c2ccc(OC)cc2)cc1 (stereo not drawn) has a melting point of 192 °C.
Compound CN(CCO)S(=O)(=O)c1cc(NC(=O)c2cnn3c(C(F)F)cc(-c4ccc(C(F)(F)F)cc4)nc23)c(Cl)s1 has a melting point of 231 °C.
In the case of Cc1ccc(C(N)(c2ccc3c(c2)C(c2cccc(Cl)c2)Nc2nnnn2-3)c2cncn2C)cc1 (stereo not drawn), the melting point is reported as 140 °C.
Cc1ccc(S(=O)(=O)Oc2ccc(S(=O)(=O)c3ccoc3C(C)C)cc2)cc1 gave a melting point of 94 °C.
Brc1ccc(-c2ccc(I)cc2)cc1 gave a melting point of 177 to 179 °C.
With CS(=O)(=O)n1cnc2cc(Cl)c(Cl)cc21 the melting point was 191 to 193 °C.
In the case of SC12CC3CC(CC(C3)C1)C2, the melting point is reported as 101 to 103 °C.
Work on CC(C(=O)c1c(O)c2cccnc2n(-c2ccccc2)c1=O)c1ccccc1 (stereo not drawn) yielded a melting point of 140 to 151 °C.
Compound CN(C)S(=O)c1nc2ccccc2s1 (stereo not drawn) has a melting point of 121 to 122 °C.
In the case of Cc1nc(-c2ccc(C#N)cc2)sc1C(=O)N(CC(=O)O)[C@H](C)[C@](O)(Cn1cncn1)c1ccc(F)cc1F, the melting point is reported as 153 to 159 °C.
For COc1ccc(S(=O)(=O)Nc2cccnc2Nc2ccc(OC(=O)N(C)C)cc2)cc1, the melting point was 202 to 203 °C.
Compound O=S(=O)(c1ccc(F)cc1)c1cncc(OC2SCC(O)C(O)C2O)c1 (stereo not drawn) has a melting point of 93 to 96 °C.
With COc1cccc2c1Oc1cc(SC)ccc1C2 the melting point was 112 to 114 °C.
For CCc1c(Cc2c[nH]c3ccccc23)[nH]c(=O)c(CC(C)C)[n+]1[O-], the melting point was 212 to 214 °C.
CC(C)(C)OC(=O)N1CCN(CCO[Si](C)(C)C(C)(C)C)C1=O showed a melting point of 35.5 to 45.5 °C.
With COc1ccc(CCNC(=O)C(=O)Nc2cccnc2)cc1OC1CCCC1 the melting point was 167 °C.
Compound Clc1nc(Nc2ccccc2)c2ccccc2n1 has a melting point of 194 to 196 °C.
O=C(NC(Cc1ccc(C(F)(F)F)cc1)C(=O)c1ccc(F)cc1)c1cc(=O)cco1 (stereo not drawn) gave a melting point of 115 to 116 °C.
In the case of Cc1noc(NS(=O)(=O)c2cc(F)ccc2F)c1Br, the melting point is reported as 123 to 125 °C.
In the case of Cc1ccc(S(=O)(=O)Oc2ccc(C=O)cc2)cc1, the melting point is reported as 70 to 72 °C.
With CC(C)(C)OC(=O)C1CCCN(CO)c2c1cc(OCc1ccccc1)c1ccccc21 (stereo not drawn) the melting point was 108 to 110 °C.
Cc1cc(C2=NOC(c3cc(Cl)cc(Cl)c3)(C(F)(F)F)C2)ccc1C(=O)NC1(Cl)N=CC=CN1 (stereo not drawn) gave a melting point of 231 to 234 °C.
CC(C)[C@H](O)[C@@H](CCCCOc1ccc(Cl)cc1Cl)n1nc[nH]c1=S (racemic) showed a melting point of 118 °C.
In the case of O=C(NN=Cc1c(O)cccc1Cl)c1ccc(Cl)cc1, the melting point is reported as 273 to 277 °C.
For CCCCCCCOc1c(OC)cc([N+](=O)[O-])c2nccc(C)c12, the melting point was 52 to 55 °C.
For CCCCCCCc1cnc(-c2ccc(OCC(F)CCCCCC)c(F)c2F)nc1 (stereo not drawn), the melting point was 56 °C.
Compound CCOc1nc2c(C)sc(C(=O)OC)c2n1Cc1ccc(-c2ccccc2C#N)cc1 has a melting point of 155 to 156 °C.
Work on C#CCN(Cc1ccc2nc[nH]c(=O)c2c1)c1ccc(C(=O)NCc2cccnc2)cc1 yielded a melting point of 137 to 139 °C.
CCOC(=O)CCn1cnc2c(=O)[nH]cnc21 showed a melting point of 197 to 200 °C.
In the case of CC(C)(C)[Si](C)(C)Oc1cccc2[nH]ccc12, the melting point is reported as 80 to 81 °C.
For Cn1nc(-c2c(Cl)cncc2Cl)nc1C1(C)CC1(Cl)Cl (stereo not drawn), the melting point was 79 to 83 °C.
CCOC(=O)c1cnc2cc(-c3ccccc3)sc2c1O gave a melting point of 286 to 289 °C.
In the case of NC(=O)c1ccc(OCC(F)(F)F)cc1, the melting point is reported as 177 to 178 °C.
For N#Cc1ccccc1Cn1cc(-c2ccnc(N)c2)n(-c2ccc(F)cc2)c1=O, the melting point was 182 to 183 °C.
Compound CCOC(=O)c1cc(C)n(-c2cccnc2)c1-c1ccccc1 has a melting point of 102 to 103 °C.
For Nc1nc2c(c(N3CCNCC3)n1)SCCC2, the melting point was 176 to 178 °C.
Compound Cc1ccc(-c2ccc(OC3SCC(O)C(O)C3O)cn2)cn1 (stereo not drawn) has a melting point of 228 °C.
For COc1ccc(OC)c(CC(NC(=O)CC(C2CCCCC2)C2CCCCC2)C(=O)OC(C)(C)C)c1 (stereo not drawn), the melting point was 108 to 111 °C.
For COc1ccc(-c2ccc3cc(C(=O)O)ccc3c2)cc1, the melting point was 267 to 269 °C.
Cc1c(/C=C/C(=O)c2nn(C)c3ccccc23)ncn1C(c1ccccc1)(c1ccccc1)c1ccccc1 gave a melting point of 223 to 225 °C.
With CCOc1ccc(C(=O)NCc2ccc3c(c2)CN(C2CCC(=O)NC2=O)C3=O)cc1 (stereo not drawn) the melting point was 269 to 271 °C.
COC1=C(OC)C(=O)C(CCCCCCCCCCCCOC(C)=O)=C(C)C1=O showed a melting point of 47 °C.
For O=C(NCCCN1C(=O)C2(COc3cc4c(cc32)CCO4)c2ccccc21)c1ccccc1OC(F)(F)F (stereo not drawn), the melting point was 65 to 70 °C.
With O=C(N[C@@H](Cc1ccc(OCc2ccsc2)cc1)C(=O)O)c1cn2cc(-c3ccc(Cl)cc3)ccc2n1 the melting point was 203 °C.
